{"source": "paper PMC9024523", "about": "“Phenoxyaromatic Acid Analogues as Novel Radiotherapy Sensitizers: Design, Synthesis and Biological Evaluation” (Molecules, 2022)", "key": {"mouse red blood cells [1]": {"test_system": "mouse red blood cells", "assay": "In vitro red blood cell-based assay (oxygen equilibrium curve, Softron analyzer)", "conditions": "final effector concentration 2 mM, mean ± SD", "source_text": "In the first stage of our research, three series of analogues were designed and synthesized to explore refinement of the hydrophobic parts of 19f, 19m, 24a and 24b; hinge areas of 18g, 19b and 19y; and tail regions of 15c, 15d and 16c, respectively. We used the Softron Analyzer to evaluate the effect of these compounds on the half-blood oxygen saturation(P50) value of red blood cells. The most promising phenoxyaromatic acid compound, efaproxiral, was used as a positive control. […] The results reminded us that the modification of the hydrophobic part or linker extension is beneficial to improve an allosteric effect.\nEight-week-old female C57BL6J mice were purchased from Beijing Vital River Laboratory Animal Technology Co., Ltd. A total of 540 μL mouse blood was added into the 1.5 mL centrifuge tube, followed by adding 60 μL 3.8% sodium citrate. The mixture was then centrifuged at 1500 rpm for 10 min, the supernatant was carefully aspirated, and the cells were washed three times with PBS solution. After mixing packed red blood cells with Alsever’s solution in a ratio of 1:1, a blood gas analyzer (RADIOMETER ABL 90) was used to analyze the red blood cell density and hemoglobin concentration.\nAll of the compounds were prepared as 200 mM stock solutions in DMSO. Oxygen equilibrium measurements were performed with the Softron analyzer (Softron Medical Products, Beijing, China) using mouse red blood cells. The samples were prepared by adding 3 mg hemoglobin equivalent of red blood cells into 3.92 mL loading buffer (100 mM NaCl, 50 mM bis-Tris at pH 7.2 and 25 °C), followed by 20 μL 10% Dimethicone as a defoamer and 20 μL 20% BSA. Afterwards, 40 μL stock solution was added, and the mixture was loaded to the sample cell and fully deoxygenated by blowing into nitrogen at 37 °C for 15 min. Then, the oxygen equilibrium curve was recorded by blowing into oxygen."}, "[2]": {"test_system": "luciferase-labeled U87MG implanted into Balb/c nude mice brains", "assay": "In vivo radiosensitization on orthotopically transplanted GB", "parameters": "species or system mouse", "description": "In order to evaluate in vivo antitumor effects, luciferase-labeled U87MG was implanted into Balb/c nude mice brains. A small animal bioluminescence imaging system was applied to trace the tumor formation and dynamic changes in GB size. Cobalt 60 was used for fractionated-dose whole-brain irradiation therapy (IR). The tumor was irradiated with a total dose of 12 Gy in four fractions of 3 Gy at a dose rate of 0.3 Gy/min. Efaproxiral or 19c was administrated at a dosage of 150 mg/kg by intraperitoneal injection (ip) every four days over a period of sixteen days. IR was conducted 15 min after ip.\nFour-week-old female BALB/c nude mice were purchased from Beijing Vital River Laboratory Animal Technology Co., Ltd. Animals were monitored daily by certified veterinary staff and laboratory personnel. All mice used in this study were maintained in a pathogen-free barrier animal facility. The study was in compliance with all relevant ethical regulations regarding animal research. All animal experiments were approved by the Institutional Animal Care and Use Committee at the Beijing Institute of Basic Medical Sciences. The U87-luc cells were processed and resuspended into basal medium at a concentration of 10^7 cells/mL. Next, 8 × 10^5 U87-luc glioma cells were implanted into the right frontal lobes of each nude mouse. Ten days after tumor implantation, tumor-bearing mice were randomly divided into six groups according to the tumor size and subjected to the indicated treatment (n = 6). Administration of drugs (150mg/kg) or vehicle was performed once every 4 days four consecutive times by intraperitoneal injection. All radiation treatments were performed 25 min after the drug or vehicle was given. Tumors on the brains of mice were irradiated at a dosage of 3 Gy four consecutive times using a ^60Co γ irradiator. The dose rate was 0.3 Gy/min. The bodies of the mice were shielded using lead blocks. The tumor progress was tracked by a small animal live bioluminescence imaging system (LB983NC100U, Germany)."}, "[3]": {"assay": "Pharmacokinetic study in rats", "assay_type": "in vivo", "conditions": "rat; for AUC(0-inf) / AUC(0-t) / Cmax / Tmax / half-life / MRT inf: male, Sprague-Dawley, plasma; for MRT inf: read-out: MRTInf_obs; for AUC_%Extrap_obs: (AUCinf−AUClast)/AUCinf", "description": "Based on the potential radiosensitization effects in vivo, we performed an in vivo pharmacokinetic (PK) study to preliminarily evaluate the druggability of 19c at a dosage of 100 mg/kg by intraperitoneal injection (ip) or oral administration (po).\nThe pharmacokinetic experiments with 19c in rats were performed by Beijing Pharmaron, Inc. All animals were maintained in the pathogen-free barrier animal facility, and the experiments were approved by the Animal Care and Use Committee of the company. The drug solution was formulated into a 10 mg/mL solution with normal saline on the day of administration. After a single dose of 19c (100 mg/kg) by intraperitoneal injection (ip) or oral administration (po) in male Sprague-Dawley rats (n = 3), blood samples were collected 0.25, 0.5, 1, 2, 4, 6, 8 and 24 h post dose and centrifuged at 4000× g for 5 min at 4 °C to obtain plasma. The plasma was diluted 3 times with water. A measure of 2 µL of diluted supernatant was injected into the LC/MS/MS system for quantitative analysis. […] The Phoenix WinNonlin 8.0 software was applied for the calculation of pharmacokinetic parameters."}, "U87MG cells": {"test_system": "U87MG cells", "assay": "Cell Titer-Glo cytotoxicity assay, U87MG", "assay_type": "cell-based, human", "description": "(§1) For further in vivo evaluation of newly synthesized compounds, 19c and 19t were selected as candidates. Hemoglobin allosteric effectors require a relatively high blood concentration to be effective. Cytotoxicity evaluation was conducted out of consideration for medication safety. HEK293 and U87MG cells were used to evaluate the cytotoxicity.\n(§2) Luciferase-transfected human glioma cells (U87-luc) and HEK293 cells were kindly provided by Dr. Nie and cultured in Dulbecco’s Modified Eagle Medium (CM10013, MacGene) with 10% fetal bovine serum (1966173C, Gibco) and 1% penicillin-streptomycin in a humidified atmosphere of 5% CO2 at 37 °C.\n(§3) Cells were plated in a 96-well plate at a density of 2000 cells/well and then treated with 19c or 19t at gradient concentrations of 10^1, 10^2, 10^3, 10^4, 10^5, 10^6and 10^7 nM. Compounds 19c and 19t were prepared as the sodium salt by adding saturated sodium bicarbonate in the process of stock solution preparation. Cell viability was evaluated on the indicated days after treatment with a Cell Titer-Glo Luminescent Cell Viability Assay kit (G7572, Promega, Madison, WI, USA) according to the manufacturer’s instructions. All data were normalized to those on day 0 and presented as the mean ± standard deviation (SD)."}, "mouse red blood cells [4]": {"test_system": "mouse red blood cells", "assay": "In vitro red blood cell-based assay (oxygen equilibrium curve, Softron analyzer)"}, "HEK293 cells": {"test_system": "HEK293 cells", "assay": "Cell Titer-Glo cytotoxicity assay, HEK293", "assay_type": "cell-based", "description": "as §1, §2, §3"}}, "note": "Values joined by “and” are separate entries in the source; they are usually repeats but may differ in a detail not shown here. Equal entries are not always repeated. “Also recorded” adds a separate entry of the source. Where two headings read alike, the source gives them in different places."}
{"smiles": "Cc1cc(C)cc(NC(=O)CCc2ccc(OC(C)(C)C(=O)O)cc2)c1", "note": "[19c, 2-(4-(3-((3,5-dimethylphenyl)amino)-3-oxopropyl)phenoxy)-2-methylpropanoic acid]", "values": [{"measurement": "P50/P50C", "setting": "mouse red blood cells [1]; P50C = control with 1% DMSO", "result": "2.04 ± 0.04"}, {"measurement": "P50", "setting": "mouse red blood cells [1]; 1% DMSO, mouse red blood cells", "result": "89.16 ± 5.20", "unit": "mmHg"}, {"measurement": "∆P50", "setting": "mouse red blood cells [1]; ∆P50 = P50 − P50C, mouse red blood cells", "result": "45.50 mmHg and 45.50 ± 1.73 mmHg"}, {"measurement": "overall survival time of tumor-bearing mice compared to vehicle control", "setting": "[2]; 150 mg/kg ip combined with IR", "result": "could improve the overall survival time"}, {"measurement": "radiosensitization effect in vivo (summary statement)", "setting": "[2]; orthotopically transplanted GB in mouse brains", "result": "exhibited a radiosensitization effect; also recorded: effective GB radiosensitizer"}, {"measurement": "AUC(0-inf)", "setting": "[3]; ip 100 mg/kg", "result": 612, "unit": "µg·h/mL"}, {"measurement": "AUC(0-t)", "setting": "[3]; ip 100 mg/kg, saline", "result": 612, "unit": "µg·h/mL"}, {"measurement": "Cmax", "setting": "[3]; ip 100 mg/kg, saline", "result": 202, "unit": "µg/mL"}, {"measurement": "Tmax", "setting": "[3]; ip 100 mg/kg, saline", "result": 0.25, "unit": "h"}, {"measurement": "half-life", "setting": "[3]; ip 100 mg/kg, saline", "result": 2.55, "unit": "h"}, {"measurement": "MRT inf", "setting": "[3]; ip 100 mg/kg, saline", "result": 2.32, "unit": "h"}, {"measurement": "AUC(0-inf)", "setting": "[3]; po 100 mg/kg, saline", "result": 411, "unit": "µg·h/mL"}, {"measurement": "AUC(0-t)", "setting": "[3]; po 100 mg/kg, saline", "result": 410, "unit": "µg·h/mL"}, {"measurement": "Cmax", "setting": "[3]; po 100 mg/kg, saline", "result": 111, "unit": "µg/mL"}, {"measurement": "Tmax", "setting": "[3]; po 100 mg/kg, saline", "result": 2, "unit": "h"}, {"measurement": "half-life", "setting": "[3]; po 100 mg/kg, saline", "result": 2.78, "unit": "h"}, {"measurement": "MRT inf", "setting": "[3]; po 100 mg/kg, saline", "result": 2.58, "unit": "h"}, {"measurement": "oral availability", "setting": "[3]", "result": "orally available"}, {"measurement": "AUCinf", "setting": "[3]; ip 100 mg/kg, saline", "result": "612,428 h*ng/mL"}, {"measurement": "AUC_%Extrap_obs", "setting": "[3]; ip 100 mg/kg", "result": 0.0362, "unit": "%"}, {"measurement": "AUClast/D", "setting": "[3]; ip 100 mg/kg", "result": 6122}, {"measurement": "AUC_%Extrap_obs", "setting": "[3]; po 100 mg/kg", "result": 0.0522, "unit": "%"}, {"measurement": "AUClast/D", "setting": "[3]; po 100 mg/kg", "result": 4104}, {"measurement": "clinical symptoms during the PK experiment", "setting": "[3]; single dose 100 mg/kg ip or po", "result": "No abnormal clinical symptoms"}, {"measurement": "cytotoxicity (summary statement)", "setting": "U87MG cells; U87MG (glioma) cells", "result": "no cytotoxicity"}, {"measurement": "cytotoxicity", "setting": "U87MG cells; U87MG cells, concentration of 5 mM", "result": "no cytotoxic effect"}, {"measurement": "influence on the Bohr effect of red blood cells", "setting": "mouse red blood cells [4]; 2 mM, change in acidity, OEC shift", "result": "will not offset the Bohr effect; also recorded: preserved the Bohr effect"}, {"measurement": "dose–response relationship of oxygen affinity of hemoglobin", "setting": "mouse red blood cells [4]; different concentrations, oxygen dissociation curve", "result": "dose-dependently altered the oxygen affinity of hemoglobin; also recorded: exerts an allosteric effect on hemoglobin at a micromolar level"}, {"measurement": "cytotoxicity (summary statement)", "setting": "HEK293 cells; HEK293 (normal) cells", "result": "no cytotoxicity"}, {"measurement": "cytotoxicity", "setting": "HEK293 cells; HEK293 cells, concentration of 5 mM", "result": "no cytotoxic effect"}]}
